These are literature values, as cited in publication PMC6832352, “Synthesis and Glycosidase Inhibition of Broussonetine M and Its Analogues” (Molecules, 2019).

Bounds are passed on as bounds.

In data set [1] the target is T1, α-Glucosidase (Saccharomyces cerevisiae, UniProt P53341).
T1 construct: purchased Sigma-Aldrich Chemical Co
The settings on record: Yeast, cited from earlier work; for inhibition %: at 1000 μM.

The next data set relates to β-Galactosidase. The settings on record: β-Galactosidase, Bovine liver, cited from earlier work; for inhibition %: at 1000 μM.
In the next data set the target is T2, α-Mannosidase (Canavalia ensiformis, UniProt C0HJB3).
T2 construct: purchased Sigma-Aldrich Chemical Co
T2 sequence (C0HJB3 1-981): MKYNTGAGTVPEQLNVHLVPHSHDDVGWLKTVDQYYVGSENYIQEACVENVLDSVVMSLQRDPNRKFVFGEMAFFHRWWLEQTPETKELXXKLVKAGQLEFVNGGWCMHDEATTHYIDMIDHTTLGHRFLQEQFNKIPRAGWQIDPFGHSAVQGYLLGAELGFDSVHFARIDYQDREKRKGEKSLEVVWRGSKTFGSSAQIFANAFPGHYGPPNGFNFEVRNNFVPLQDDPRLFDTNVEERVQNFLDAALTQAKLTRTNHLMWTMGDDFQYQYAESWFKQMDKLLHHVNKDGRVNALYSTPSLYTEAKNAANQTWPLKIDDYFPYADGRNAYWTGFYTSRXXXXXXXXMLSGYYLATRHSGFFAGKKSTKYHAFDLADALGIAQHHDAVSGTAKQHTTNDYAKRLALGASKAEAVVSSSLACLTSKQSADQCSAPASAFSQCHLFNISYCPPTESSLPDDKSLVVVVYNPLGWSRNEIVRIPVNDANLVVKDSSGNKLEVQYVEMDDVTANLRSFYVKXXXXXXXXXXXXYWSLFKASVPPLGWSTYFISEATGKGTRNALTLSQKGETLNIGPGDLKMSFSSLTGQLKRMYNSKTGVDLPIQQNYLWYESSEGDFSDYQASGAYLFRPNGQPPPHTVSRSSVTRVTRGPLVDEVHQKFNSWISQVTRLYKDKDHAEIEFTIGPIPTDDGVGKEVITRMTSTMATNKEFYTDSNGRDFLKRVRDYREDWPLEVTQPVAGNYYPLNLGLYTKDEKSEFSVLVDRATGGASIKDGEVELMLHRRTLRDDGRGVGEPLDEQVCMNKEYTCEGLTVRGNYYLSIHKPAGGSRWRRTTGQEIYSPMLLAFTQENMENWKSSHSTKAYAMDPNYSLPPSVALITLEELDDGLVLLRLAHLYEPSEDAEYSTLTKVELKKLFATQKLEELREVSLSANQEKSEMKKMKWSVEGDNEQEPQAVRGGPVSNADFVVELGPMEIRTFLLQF
Particulars: Jack bean, cited from earlier work; for inhibition %: at 1000 μM.

The target of data set [2] is β-Glucosidase. The settings on record: Almond, cited from earlier work; for inhibition %: at 1000 μM.
A further data set has as its target T3, α-L-Fucosidase (Bos taurus, UniProt Q2KIM0).
T3 construct: purchased Sigma-Aldrich Chemical Co; host or cells: bovine kidney
T3 sequence (Q2KIM0 23-468): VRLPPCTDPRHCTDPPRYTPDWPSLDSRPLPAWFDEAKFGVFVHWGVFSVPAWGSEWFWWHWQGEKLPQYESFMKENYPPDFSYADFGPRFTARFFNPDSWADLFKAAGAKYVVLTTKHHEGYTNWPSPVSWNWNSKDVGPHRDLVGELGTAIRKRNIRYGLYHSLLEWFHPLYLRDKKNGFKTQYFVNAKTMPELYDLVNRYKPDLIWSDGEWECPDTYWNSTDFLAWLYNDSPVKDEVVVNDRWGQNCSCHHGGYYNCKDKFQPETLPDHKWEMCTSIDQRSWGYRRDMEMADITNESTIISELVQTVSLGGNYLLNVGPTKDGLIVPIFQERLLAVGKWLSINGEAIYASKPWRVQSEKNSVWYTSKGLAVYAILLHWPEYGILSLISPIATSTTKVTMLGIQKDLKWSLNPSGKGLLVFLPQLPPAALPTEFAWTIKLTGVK
The settings on record: at 1000 μM, Bovine kidney; cited from earlier work.

For the next data set, the target named is T4, β-Glucuronidase (Escherichia coli, UniProt P05804).
T4 construct: purchased Sigma-Aldrich Chemical Co
Set-up: method as in PMID 22928735. The settings on record: E.coli, cited from earlier work; for inhibition %: at 1000 μM.

The target of the next data set is T5, α-L-Rhamnosidase (Penicillium decumbens, UniProt S7ZS15).
T5 sequence (S7ZS15 1-894): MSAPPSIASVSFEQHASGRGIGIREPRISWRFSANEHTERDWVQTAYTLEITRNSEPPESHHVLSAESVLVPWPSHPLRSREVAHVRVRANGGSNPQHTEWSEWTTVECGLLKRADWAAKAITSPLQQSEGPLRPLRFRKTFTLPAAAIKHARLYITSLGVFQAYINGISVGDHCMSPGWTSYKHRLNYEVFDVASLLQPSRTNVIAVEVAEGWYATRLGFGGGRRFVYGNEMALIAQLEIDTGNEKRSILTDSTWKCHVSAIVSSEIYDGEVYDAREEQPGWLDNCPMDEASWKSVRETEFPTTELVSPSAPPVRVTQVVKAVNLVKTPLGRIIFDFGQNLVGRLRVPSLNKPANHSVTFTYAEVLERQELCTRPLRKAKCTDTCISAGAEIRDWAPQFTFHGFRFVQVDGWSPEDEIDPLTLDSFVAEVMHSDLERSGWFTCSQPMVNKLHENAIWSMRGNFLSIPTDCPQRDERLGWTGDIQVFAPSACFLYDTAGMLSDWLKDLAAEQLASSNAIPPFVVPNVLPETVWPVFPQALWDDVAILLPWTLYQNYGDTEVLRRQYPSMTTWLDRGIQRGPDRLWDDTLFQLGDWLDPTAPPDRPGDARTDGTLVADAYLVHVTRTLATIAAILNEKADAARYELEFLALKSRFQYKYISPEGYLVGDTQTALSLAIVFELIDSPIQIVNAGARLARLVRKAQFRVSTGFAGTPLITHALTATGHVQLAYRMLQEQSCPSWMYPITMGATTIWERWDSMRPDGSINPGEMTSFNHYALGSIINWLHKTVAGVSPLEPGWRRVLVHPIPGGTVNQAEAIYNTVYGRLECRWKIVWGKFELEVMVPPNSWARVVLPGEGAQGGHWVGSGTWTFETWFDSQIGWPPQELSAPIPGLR
The settings on record: at 1000 μM, P. decumbens; cited from earlier work.

The next data set addresses Rat intestinal maltase. The settings on record: cited from earlier work.
In data set [3] the target is T6, β-Glucosidase (Bos taurus, UniProt F1MNT6).
T6 sequence (F1MNT6 1-469): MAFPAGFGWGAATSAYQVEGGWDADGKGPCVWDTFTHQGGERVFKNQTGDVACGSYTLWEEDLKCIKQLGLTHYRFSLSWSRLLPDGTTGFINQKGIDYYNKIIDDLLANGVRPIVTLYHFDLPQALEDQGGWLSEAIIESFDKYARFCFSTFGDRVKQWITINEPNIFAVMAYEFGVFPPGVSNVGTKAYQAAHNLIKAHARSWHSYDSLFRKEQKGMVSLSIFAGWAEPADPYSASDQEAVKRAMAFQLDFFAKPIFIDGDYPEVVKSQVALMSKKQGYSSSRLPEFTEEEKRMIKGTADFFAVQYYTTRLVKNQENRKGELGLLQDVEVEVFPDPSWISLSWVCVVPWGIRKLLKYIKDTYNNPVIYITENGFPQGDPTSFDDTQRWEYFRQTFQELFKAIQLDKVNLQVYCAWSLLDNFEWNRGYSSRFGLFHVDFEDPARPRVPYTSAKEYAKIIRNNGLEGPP
The settings on record: at 1000 μM, Bovine liver; cited from earlier work.

The target in a further data set is β-Mannosidase. The settings on record: Snail, cited from earlier work; for inhibition %: at 1000 μM.
In the next data set the target is T7, α-Galactosidase (Coffea arabica, UniProt Q42656).
T7 construct: purchased Sigma-Aldrich Chemical Co
Particulars: at 1000 μM, Coffee beans; cited from earlier work.

Data set [4] deals with T8, α-Glucosidase (Oryza sativa subsp. japonica, UniProt Q653V7).
T8 construct: purchased Sigma-Aldrich Chemical Co
Particulars: at 1000 μM, Rice; cited from earlier work.

The next data set relates to β-glycosidase. Set-up: method as in earlier work. The settings on record: cited from earlier work.

T7 sequence (Q42656 16-378): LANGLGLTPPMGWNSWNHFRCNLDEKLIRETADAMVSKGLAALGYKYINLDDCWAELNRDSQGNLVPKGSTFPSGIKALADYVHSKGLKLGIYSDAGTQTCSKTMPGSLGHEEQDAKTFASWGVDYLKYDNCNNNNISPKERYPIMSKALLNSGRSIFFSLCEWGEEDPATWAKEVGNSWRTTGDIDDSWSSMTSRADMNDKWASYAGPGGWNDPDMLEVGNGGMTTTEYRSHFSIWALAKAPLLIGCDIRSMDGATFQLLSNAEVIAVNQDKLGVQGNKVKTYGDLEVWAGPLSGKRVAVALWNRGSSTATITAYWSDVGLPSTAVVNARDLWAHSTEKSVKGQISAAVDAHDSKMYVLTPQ
T1 sequence (P53341 whole entry): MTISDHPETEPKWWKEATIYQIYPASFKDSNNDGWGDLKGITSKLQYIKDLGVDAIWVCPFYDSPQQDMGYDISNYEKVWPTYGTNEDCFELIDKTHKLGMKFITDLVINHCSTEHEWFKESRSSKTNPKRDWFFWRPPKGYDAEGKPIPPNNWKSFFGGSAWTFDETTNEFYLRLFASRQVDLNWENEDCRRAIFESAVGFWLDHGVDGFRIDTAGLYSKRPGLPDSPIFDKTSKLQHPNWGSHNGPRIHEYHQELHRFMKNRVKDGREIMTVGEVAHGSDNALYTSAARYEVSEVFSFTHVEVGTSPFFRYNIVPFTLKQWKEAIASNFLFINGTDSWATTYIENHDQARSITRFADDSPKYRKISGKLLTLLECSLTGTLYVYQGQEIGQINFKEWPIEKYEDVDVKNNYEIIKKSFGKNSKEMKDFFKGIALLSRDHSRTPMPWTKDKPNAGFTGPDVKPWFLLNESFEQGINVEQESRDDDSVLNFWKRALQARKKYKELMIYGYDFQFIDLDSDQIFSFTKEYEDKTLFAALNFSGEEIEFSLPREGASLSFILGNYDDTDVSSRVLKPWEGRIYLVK
T4 sequence (P05804 whole entry): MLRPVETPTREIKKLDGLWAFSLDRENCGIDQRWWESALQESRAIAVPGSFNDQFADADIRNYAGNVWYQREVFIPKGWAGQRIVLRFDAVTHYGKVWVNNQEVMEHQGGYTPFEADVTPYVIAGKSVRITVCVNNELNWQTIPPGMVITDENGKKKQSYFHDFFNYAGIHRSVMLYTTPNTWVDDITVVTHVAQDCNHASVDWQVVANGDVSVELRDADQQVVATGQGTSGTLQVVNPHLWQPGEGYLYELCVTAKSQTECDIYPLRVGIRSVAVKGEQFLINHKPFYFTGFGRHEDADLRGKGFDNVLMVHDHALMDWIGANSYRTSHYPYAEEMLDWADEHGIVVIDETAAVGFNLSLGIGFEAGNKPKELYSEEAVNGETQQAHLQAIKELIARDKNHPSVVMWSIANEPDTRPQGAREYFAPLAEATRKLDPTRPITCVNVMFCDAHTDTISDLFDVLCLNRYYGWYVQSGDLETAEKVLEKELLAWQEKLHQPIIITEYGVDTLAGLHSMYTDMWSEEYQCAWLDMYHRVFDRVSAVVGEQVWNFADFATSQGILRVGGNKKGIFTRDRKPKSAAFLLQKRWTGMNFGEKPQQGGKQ
T8 sequence (Q653V7 34-885): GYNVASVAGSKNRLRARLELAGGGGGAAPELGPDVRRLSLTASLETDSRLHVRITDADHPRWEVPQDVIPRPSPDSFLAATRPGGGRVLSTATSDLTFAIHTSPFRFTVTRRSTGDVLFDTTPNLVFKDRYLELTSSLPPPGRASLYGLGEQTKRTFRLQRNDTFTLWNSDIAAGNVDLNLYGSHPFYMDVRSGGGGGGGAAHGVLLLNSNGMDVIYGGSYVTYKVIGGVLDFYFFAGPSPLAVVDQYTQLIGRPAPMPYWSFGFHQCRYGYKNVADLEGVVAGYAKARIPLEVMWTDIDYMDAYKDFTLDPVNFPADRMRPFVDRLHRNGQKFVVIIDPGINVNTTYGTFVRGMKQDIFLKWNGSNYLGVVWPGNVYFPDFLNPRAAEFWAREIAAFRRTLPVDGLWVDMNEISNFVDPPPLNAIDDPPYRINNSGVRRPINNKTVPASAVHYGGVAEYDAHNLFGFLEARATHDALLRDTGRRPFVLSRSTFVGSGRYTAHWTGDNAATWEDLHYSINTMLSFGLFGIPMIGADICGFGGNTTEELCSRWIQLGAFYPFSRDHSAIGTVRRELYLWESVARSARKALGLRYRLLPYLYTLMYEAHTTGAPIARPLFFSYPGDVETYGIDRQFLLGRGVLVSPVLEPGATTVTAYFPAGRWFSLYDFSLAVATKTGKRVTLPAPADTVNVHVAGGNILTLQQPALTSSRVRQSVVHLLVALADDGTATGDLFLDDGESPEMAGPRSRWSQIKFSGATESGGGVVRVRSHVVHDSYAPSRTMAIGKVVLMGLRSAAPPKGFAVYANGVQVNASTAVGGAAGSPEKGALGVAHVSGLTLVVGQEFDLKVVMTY

For orientation: IC50 means the concentration that inhibits the measured activity by half. With `OC[C@@H]1N[C@@H](CO)[C@H](O)[C@H]1O` (single isomer, unassigned) [L-DMDP (ent-2)], the IC50 at α-Glucosidase [1] was […]; on β-Galactosidase it was […]; on α-Mannosidase, […]; on β-Glucosidase [2] it was […]; on β-Glucuronidase, […]; on Rat intestinal maltase, 1.2 µM. Further, on β-Mannosidase, the IC50 was […]. In addition, the inhibition % on α-Glucosidase [1] is reported as 34.9%; in the data set with β-Galactosidase, […]; on α-Mannosidase, 17.3%; in the data set with β-Glucosidase [2], 12.1%; on α-L-Fucosidase it was […]; at β-Glucuronidase it was 0.8%. Also, the inhibition % on α-L-Rhamnosidase was 45.6%; on β-Glucosidase [3] it was 4.6%; with β-Mannosidase it was 12.6%; at α-Galactosidase, 13.8%.

As to `OC[C@@H]1N[C@H](CO)[C@@H](O)[C@@H]1O` [D-gluco-DMDP], the IC50 is 167 µM on α-Glucosidase [1]; […] on β-Galactosidase; […] on α-Mannosidase; 256 µM at β-Glucosidase [2]; […] on β-Glucuronidase; 138 µM on Rat intestinal maltase. Further, on β-Mannosidase, the IC50 was […]. Further, the inhibition % is recorded as 13.3% at α-Mannosidase; 37.2% at α-L-Fucosidase; 5.1% at β-Glucuronidase; 24.1% on α-L-Rhamnosidase; 14.6% in the data set on β-Mannosidase; 38.4% on α-Galactosidase.

For the compound `OCC1NC(CO)C(O)C1O` (stereo not shown) [DMDP (2), 2,5-dihydroxymethyl-3,4-dihydroxypyrrolidine], the IC50 is […] at α-Glucosidase [1]; […] at β-Galactosidase; […] on α-Mannosidase; 10 µM at β-Glucosidase [2]; […] on β-Glucuronidase; 290 µM at Rat intestinal maltase. In addition, at β-Mannosidase, the IC50 is 721 µM. In addition, the inhibition % is 15.6% at α-Glucosidase [1]; 31.5% at α-Mannosidase; 37.2% on α-L-Fucosidase; 0.4% on β-Glucuronidase; 24.1% on α-L-Rhamnosidase; 10.5% at α-Galactosidase.

For `OC[C@@H]1N[C@@H](CO)[C@@H](O)[C@H]1O` [L-altro-DMDP], the inhibition % was 9.5% on α-Glucosidase [4]; 35.1% at α-Glucosidase [1]; […] in the data set with β-Galactosidase; 37.6% at α-Mannosidase; 15.9% with β-Glucosidase [2]; 2.0% at β-Glucuronidase. Moreover, the inhibition % is on record as 10.3% at β-Glucosidase [3] and 3.7% in the data set with β-Mannosidase. The IC50 at α-Glucosidase [1] was […]; at β-Galactosidase, […]; on α-Mannosidase it was […]; at β-Glucosidase [2] it was […]; at β-Glucuronidase, […]; at Rat intestinal maltase, 754 µM. Moreover, on β-Mannosidase, the IC50 was […].

`O=C(CCCO)CCCCCCCC[C@@H](O)[C@H]1N[C@H](CO)[C@@H](O)[C@@H]1O` [compound 4, broussonetine E]: in the data set with β-glycosidase, the “β-glycosidase inhibition (in words)” value is on record as “potent β-glycosidase inhibition”.

With `O=C(CCCCO)CCCCCCC[C@@H](O)[C@H]1N[C@H](CO)[C@@H](O)[C@@H]1O` [compound 5, broussonetine F], the “β-glycosidase inhibition (in words)” value in the data set with β-glycosidase was “potent β-glycosidase inhibition”.

Consider `OCC1NC(C(O)CCCCC2CCCC3(CCCO3)O2)C(O)C1O` (stereo not shown) [compound 6, broussonetine G], for which the “β-glycosidase inhibition (in words)” value in the data set with β-glycosidase is on record as “potent β-glycosidase inhibition”.
